Reference: patent publication US7579378B2, “Sulfonamido compounds that antagonize the vanilloid TRPV1 receptor” (Pharmeste S.R.L., priority 2004, dated 2009)

Key:
[1] = molecular target: T1, TRPV1 expressing rat trigeminal neurons (Rattus norvegicus, UniProt O35433); test: Ca2+ fluorescence measurements in cultured rat trigeminal ganglia neurons (capsaicin-induced calcium mobilisation); format: cell-based; conditions: for IC50: against capsaicin (0.1 μM)-induced calcium mobilisation, 10 minutes incubation prior to capsaicin, mean and 95% fiducial limits
T1 construct: The ganglia were then dissociated into single cells; endogenous in cells; host or cells: primary cultured trigeminal ganglia neurons from newborn rats
T1 sequence (O35433 whole entry): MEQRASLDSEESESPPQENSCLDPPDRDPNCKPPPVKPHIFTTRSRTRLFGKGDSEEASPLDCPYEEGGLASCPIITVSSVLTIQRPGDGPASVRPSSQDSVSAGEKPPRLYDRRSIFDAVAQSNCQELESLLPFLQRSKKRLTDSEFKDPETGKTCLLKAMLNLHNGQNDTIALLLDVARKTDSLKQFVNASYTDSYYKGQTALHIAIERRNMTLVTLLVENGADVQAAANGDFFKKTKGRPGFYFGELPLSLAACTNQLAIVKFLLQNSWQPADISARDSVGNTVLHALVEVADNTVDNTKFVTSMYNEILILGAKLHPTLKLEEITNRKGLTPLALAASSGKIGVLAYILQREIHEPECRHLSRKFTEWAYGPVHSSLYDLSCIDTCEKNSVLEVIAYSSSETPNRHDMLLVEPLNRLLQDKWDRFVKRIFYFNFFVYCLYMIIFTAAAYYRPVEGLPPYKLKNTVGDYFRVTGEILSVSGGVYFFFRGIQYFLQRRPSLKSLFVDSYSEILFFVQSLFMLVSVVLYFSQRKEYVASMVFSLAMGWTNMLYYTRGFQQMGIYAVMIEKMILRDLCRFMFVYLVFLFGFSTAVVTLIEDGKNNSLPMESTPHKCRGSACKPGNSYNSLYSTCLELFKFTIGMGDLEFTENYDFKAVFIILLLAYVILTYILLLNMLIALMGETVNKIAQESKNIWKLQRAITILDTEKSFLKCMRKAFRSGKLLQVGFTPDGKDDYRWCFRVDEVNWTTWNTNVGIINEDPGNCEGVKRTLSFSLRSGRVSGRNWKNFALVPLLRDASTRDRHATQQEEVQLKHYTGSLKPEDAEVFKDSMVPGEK
Protocol: Newborn rats (2 days old) were terminally anaesthetized and decapitated. The trigeminal ganglia were removed and rapidly placed in cold phosphate buffered solution (PBS) before being transferred to collagenase/dispase (1 mg/ml dissolved in Ca^2+—Mg^2+-free PBS) for 35 min at 37° C. (Rigoni et al, 2003). After the enzymatic treatment ganglia were rinsed three times with Ca^2+—Mg^2+-free PBS and then placed in 2 ml of cold DMEM supplemented with 10% foetal bovine serum (FBS, heat inactivated), 2 mM L-glutamine, 100 u/ml penicillin and […] streptomycin. The ganglia were then dissociated into single cells by several passages through a series of syringe needles (23 G down to 25 G). Finally, the complex of medium and ganglia cells were sieved through a […] filter to remove debris and topped up with 8 ml of DMEM medium and centrifuged (200×g for 5 min). The final cell pellet was re-suspended in DMEM medium (supplemented with 100 ng/ml mouse Nerve Growth Factor (mouse-NGF-7S) and cytosine-b-D-arabino-furanoside free base (ARA-C) 2.5 mM). Cells were plated on poly-L-lysine (8.3 mM) and laminin (5 mM) coated 25 mm glass cover slips and kept for 2 to 5 days at 37° C. in a humidified incubator gassed with 5% CO2 and air. Plated neurons were loaded with Fura-2-AM-ester (3 μM) in Ca^2+ buffer solution of the following composition (mM): CaCl2 1.4, KCl 5.4, MgSO4 0.4, NaCl 135, D-glucose 5, HEPES 10 with BSA 0.1%, at pH 7.4, for 40 min at 37° C., washed twice with the Ca^2+ buffer solution and transferred to a chamber on the stage of Nikon eclipse TE300 microscope. The dye was excited at 340 and 380 nm to indicate relative [Ca^2+]i changes by the F340/F380 ratio recorded with a dynamic image analysis system (Laboratory Automation 2.0, RCS, Florence, Italy). Capsaicin (0.1 μM) and ionomycin (5 μM) were added to the chamber. A calibration curve using a buffer containing Fura-2-AM-ester and determinant concentrations of free Ca^2+ (Kudo et al., 1986) was used to convert the data obtained from F340/F380 ratio to [Ca^2+]i (nM).
The effects of all compounds were tested against capsaicin-induced calcium mobilisation. Antagonistic compounds were incubated for 10 minutes prior to the capsaicin challenge. The inhibitory effect of the TRPV1 antagonist, capsazepine, was also tested.

[2] = molecular target: T2, TRPV1 receptor expressed in rat spinal cord (Rattus norvegicus, UniProt O35433); test: [3H]-RTX competition binding assay; conditions: for Ki: [3H]-RTX (0.4 nM) competition, rat spinal cord membranes, mean and 95% fiducial limits; for affinity for the TRPV1 receptor: in vitro, summary statement
T2 construct: spinal cord was removed and disrupted using a Polytron tissue homogenizer; from tissue; host or cells: rat spinal cord membranes (Sprague-Dawley)
T2 sequence (O35433 whole entry): as above
Protocol: Male Sprague-Dawley rats with body weight between 250 to 350 g at the time for testing were used. For binding assays rats were sacrificed by decapitation under anesthesia and spinal cord was removed and disrupted using a Polytron tissue homogenizer in ice cold buffer containing 5 mM KCl, 5.8 mM NaCl, 0.75 mM CaCl2, 2 mM MgCl2, 320 mM sucrose, 10 mM Hepes, pH 8.6 (Szallasi and Blunberg, 1992; 1993). Tissue homogenized was centrifuged at 1000×g for 10 min at 4° C. and the sumatant was centrifuged again at 35000×g for 30 min at 4° C. (Beckman Avanti J25). The pellet was resuspended in the same buffer as described above and used in binding experiments. In saturation experiments, 150 μg protein/sample from membrane suspensions were incubated with ([^3H]-Resiniferatoxin, Perkin Elmer, Boston, Mass.) [^3H]-RTX (0.003-3 nM) in the assay buffer containing 0.25 mg/ml fatty acid-free bovine serum albumin at 37° C. for 60 min. In competition experiments, the membranes were incubated at 37° C. for 60 min with [^3H]RTX (0.4 nM) and increasing concentrations of examined compounds in the range from 0.1 nM to 3 μM. Non specific binding was defined in the presence of 1 μM RTX. After incubation the reaction mixture was cooled at 0° C. and incubated with bovine α1-acid glycoprotein (200 μg per tube) for 15 min to reduce non-specific RTX binding. Membrane-bound RTX was separated from the free through the centrifugation of the samples at 18500×g for 15 min. The tip of the microcentrifuge tube containing the pellet was cut off and the radioactivity was determined by scintillation counting (Packard 2500 TR). The protein concentration was determined according to a Bio-Rad method with bovine serum albumin as a standard reference (Bradford, 1976). Saturation and competition studies were analyzed with the program Ligand (Munson and Rodbard, 1980).

[3] = system: capsaicin-induced wiping behaviour; test: Wiping test in rats (capsaicin-induced wiping); format: in vivo, rat
Protocol: The irritant effect (induction of wiping movements) of capsaicin was assessed by applying capsaicin 3 μg/eye (10 μl) on the rat conjunctiva and the number of wiping movements was recorded during the 60 sec period that followed the application. In other set of experiments, rats were treated intraperitoneally with diverse doses of 14 and capsaicin-induced wiping was studied.

Row | Structure (SMILES) | IC50 [1] | melting point | Ki [2] | affinity for the TRPV1 receptor [2] | also measured
1 | Oc1cc2c(cc1O)CN(C(=S)NCCc1ccc(Cl)cc1)CCC2 [Capsazepine, capsazepine, reference compound] | 2170 nM | – | – | – | –
2 | COc1cc(CNS(=O)(=O)c2ccc(CCNC(=S)NCc3ccc(C(C)(C)C)cc3)cc2)c(I)cc1O [Compound 32, N-(4-t-butyl-benzyl)-N′-[4-(2-iodo-4-hydroxy-5-methoxy-benzyl)aminosulfonyl-2-phenylethyl]thiourea] | – | 195 °C | – | – | –
3 | COc1cc(CNS(=O)(=O)c2ccc(CCNC(=S)NCc3ccc(C(F)(F)F)cc3)cc2)c(I)cc1O [Compound 33, N-(4-trifluoromethyl-benzyl)-N′-[4-(2-iodo-4-hydroxy-5-methoxy-benzyl)aminosulfonyl-2-phenylethyl]thiourea] | – | 186 °C | – | – | –
4 | COc1cc(CNS(=O)(=O)c2ccc(NC(=S)NCc3ccc(C(C)(C)C)cc3)cc2)c(Br)cc1O [Compound 20, N-(4-t-butyl-benzyl)-N′-[4-(2-bromo-4-hydroxy-5-methoxy-benzyl)aminosulfonyl]phenyl thiourea] | 212 nM | – | 493 nM | high affinity | –
5 | COc1cc(CNC(=O)CCCC/C=C/C(C)C)ccc1O [Capsaicin, capsaicin, reference compound] | – | – | – | – | rat trigeminal neuronal cells showing an increase in [Ca2+]i ([1]; capsaicin 0.1 μM): 87%
6 | COc1cc(CNS(=O)(=O)c2ccc(NC(=S)NCc3ccc(C(C)(C)C)cc3)cc2)c(I)cc1O [Compound 14, N-(4-t-butyl-benzyl)-N′-[4-(2-iodo-4-hydroxy-5-methoxy-benzyl)aminosulfonyl]phenyl thiourea] | 60 nM | – | 90 nM | significantly greater than that of the classic TRPV1 receptor antagonist, capsazepine | inhibition of capsaicin-induced wiping behaviour ([3]; 1 mg/kg intraperitoneal, 60 minutes prior to the capsaicin challenge (3 μg/eye)): 24%; effect on capsaicin-induced wiping behaviour ([3]; intraperitoneal, 60 minutes prior to the capsaicin challenge, diverse doses): dose dependent reduction
7 | COc1cc(CNS(=O)(=O)c2ccc(NC(=S)NCc3ccc(C(F)(F)F)cc3)cc2)c(Cl)cc1O [Compound 19, N-(4-trifluoromethyl-benzyl)-N′-[4-(2-chloro-4-hydroxy-5-methoxy-benzyl)aminosulfonyl]phenyl thiourea] | 270 nM | 122 °C | 756 nM | high affinity | –
